Literature values as cited in patent US20080200512A1, “Hepatitis C virus polymerase inhibitors” (priority 2007, published 2008).

Tested on: HCV
Settings: monotherapy

NC(=O)c1ncn([C@@H]2O[C@H](CO)[C@@H](O)[C@H]2O)n1 [ribavirin, 1-((2R,3R,4S,5R)-3,4-dihydroxy-5-hydroxymethyl-tetrahydro-furan-2-yl)-1H-[1,2,4]triazole-3-carboxylic acid amide]
patients in whom serum amino transferase levels are reduced to normal: 40%
